Data as given in paper PMC3781034, “A Small-Animal Pharmacokinetic/Pharmacodynamic PET Study of Central Serotonin 1A Receptor Occupancy by a Potential Therapeutic Agent for Overactive Bladder” (PLoS ONE, 2013).
pKi: −log10 of the molar value.

Tests used:
[1] = target: T1, rat 5-HT1A receptor (Rattus norvegicus, UniProt P19327); test: Binding assay in rat hippocampal membrane fraction ([3H]MPPF); conditions: rat hippocampal membranes, 0.3 nM [3H]MPPF, 25°C 60 min; read-out: Ki, 5-HT1A receptor affinity
T1 construct: from tissue; host or cells: rat hippocampus, membrane (microsomal) fraction
T1 sequence (P19327 1-422): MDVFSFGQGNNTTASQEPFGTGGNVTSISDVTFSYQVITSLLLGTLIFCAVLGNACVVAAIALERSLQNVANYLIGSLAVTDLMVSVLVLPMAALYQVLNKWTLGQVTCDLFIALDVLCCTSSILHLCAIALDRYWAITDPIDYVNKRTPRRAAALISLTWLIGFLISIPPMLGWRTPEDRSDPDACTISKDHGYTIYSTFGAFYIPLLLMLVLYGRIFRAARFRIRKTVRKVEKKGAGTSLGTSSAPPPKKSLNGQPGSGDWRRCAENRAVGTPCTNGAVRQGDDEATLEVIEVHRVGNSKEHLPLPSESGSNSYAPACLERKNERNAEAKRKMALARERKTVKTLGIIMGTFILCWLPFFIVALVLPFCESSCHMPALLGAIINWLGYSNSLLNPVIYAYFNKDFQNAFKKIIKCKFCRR
Protocol: Rat hippocampal samples were weighed, homogenized in 10-fold volume of 50 mM Tris-HCl (pH 7.4) on an ice bath, and centrifuged (50,000×g, 4°C, 20 min). The precipitate was further homogenized in a 10-fold volume of 50 mM Tris-HCl (pH 7.4) on an ice bath and centrifuged (50,000×g, 4°C, 20 min). The obtained precipitate was homogenized in 50 mM Tris-HCl (pH 7.4) to render a concentration of 100 mg tissue eq./mL. The obtained microsomal fraction was stored as a receptor stock solution at -80°C until use. […] MPPF in a total 1-ml reaction volume at 25°C for 60 min. The reaction was terminated, and bound radioactivity was separated from free radioligands by filtering and washing three times with 3 ml of 50 mM Tris-HCl (pH 7.4). The radioactivity content of the filters in 5 ml of liquid scintillator (Atomlight; PerkinElmer) was counted by TR2500 scintillation counter (PerkinElmer Life & Analytical Sciences). The specific binding was determined as the difference between total and nonspecific binding, measured in the absence and presence of 100 µM 5-HT. Data were analyzed by Scatchard plot to estimate equilibrium constant (Kd) values. For the competition experiments, binding assays were carried out using 0.3 nM [^3H] […] MPPF according to the following equation:
Ki=IC50/1+[radioligand]/Kd (1)
where [radioligand] means the concentration of the radioligand used.

[2] = test system: micturition interval; test: 5-HT1A receptor agonist (8-OH-DPAT)-induced model of OAB, cystometry; type: in vivo, female SD rats
Protocol: Catheter implantations and cystometric investigations were performed based on the reported method [14]. Briefly, on the day before the cystometric experiment, female SD rats were initially anesthetized with pentobarbital (50 mg/kg ip). Catheters were inserted into the femoral vein, the dome of the stomach and the dome of the bladder. In the cystometric study, the bladder catheter was connected to an infusion pump and a pressure transducer (DX-312; Nihon Kohden Co., Tokyo, Japan) by three-way stopcock. Saline was infused into the bladder and femoral vein. After bladder pressure was stabilized, 8-OH-DPAT (0.06 mg/kg/h) was infused into the femoral vein instead of saline. Bladder pressure was monitored with a pressure transducer and a pressure amplifier (AP-601G; Nihon Kohden), and recorded on a pen recorder (WT-645G; Nihon Kohden). The following three micturition intervals (i.e., intervals between consecutive peaks of bladder pressure induced at the time of bladder content evacuation) were obtained: (1) basal micturition interval (intervals before 8-OH-DPAT administration), (2) pre-administration micturition interval, (intervals immediately before administration of E2110 or vehicle), and (3) post-administration micturition interval (intervals observed between 1 and 2 hr after administration of E2110 or vehicle). […] E2110 (0.03, 0.1 or 0.3 mg/kg) or vehicle was administered to four groups of eight conscious rats orally.

[3] = test system: micturition interval; test: Superior colliculus lesion (SCL) model, cystometry; type: in vivo, female SD rats
Protocol: For lesioning of the brain to stimulate the micturition reflex, anesthesia was induced in female SD rats with 4% halothane and an N2O/O2 (2:1) gas mixture, it was maintained with 2% halothane, and each animal was mounted onto a stereotaxic apparatus. […] Catheter implantations and cystometric investigations were performed with the same methodologies as in the 5-HT1A receptor agonist-induced model. E2110 (0.1, 0.3 or 1 mg/kg) or vehicle was administered to four groups of eight conscious rats orally. The three micturition intervals were obtained and drug-induced changes in the micturition intervals were evaluated. In this assay, the post-administration micturition interval was defined as the average of the micturition intervals over an observation period between 0.5 and 1 hour after administration.
Data are expressed as mean ± standard error of mean (S.E.M). In the pharmacological study, the statistical significance of differences between the vehicle- and E2110-treated groups was tested using one-way analysis of variance (ANOVA) followed by Dunnett’s multiple comparison test. A probability (p) value of <0.05 (two-sided) was considered statistically significant. All statistical analyses were performed using the SAS software package version 8.1 or 8.2 (SAS Institute Japan Ltd., Tokyo, Japan).

[4] = test system: 5-HT1A receptors; test: [35S]guanosine-5'-O-(3-thio)-triphosphate binding studies; type: biochemical; conditions: stated in introduction, no data shown

Structure (SMILES): CNC(=O)c1ccc2ccn(C3CCN(CCc4c(OC)ccc5c4OC(C)(C)CC5=O)CC3)c2c1.O=C(O)/C=C/C(=O)O [E2110, 1-{1-[2-(7-Methoxy-2,2-dimethyl-4-oxochroman-8-yl)ethyl]piperidine-4-yl}-N-methyl-1H-indole-6-carboxamide fumarate]
- pKi [1]: 10.35
- minimum dose exerting overt therapeutic effects on the micturition reflex ([2]; 8-OH-DPAT model, oral): 0.1 mg/kg
- effect on micturition interval ([2]; oral 0.1-0.3 mg/kg, 8-OH-DPAT-infused female SD rats, 1-2 hr after administration): significantly (p < 0.05) prolonged the micturition intervals
- minimum dose exerting overt therapeutic effects on the micturition reflex ([3]; SCL model, oral): 0.3 mg/kg
- effect on micturition interval ([3]; oral 0.3-1 mg/kg, SCL female SD rats, 0.5-1 hour after administration): significantly (p < 0.05) prolonged the micturition intervals
- functional character at 5-HT1A receptors [4]: full antagonist
